Numbering of substitutions follows the chain as printed. “And” between values parts separate entries of the source, which are not always exact repeats. Equal values may be shown once. Blank lines part the entries; values can stand above or below the compound they belong to.
Experiments:
murine PGP^C297S = molecular target: T1, murine PGP^C297S (Mus musculus, UniProt Q8CHP8, C297S); test: IC50 determination, PGP^C297S, PG dephosphorylation; format: biochemical
T1 construct: His6 (N, cleaved yes); made in house; host or cells: Escherichia coli BL21 (DE3)
T1 sequence (Q8CHP8 1-321 C297S): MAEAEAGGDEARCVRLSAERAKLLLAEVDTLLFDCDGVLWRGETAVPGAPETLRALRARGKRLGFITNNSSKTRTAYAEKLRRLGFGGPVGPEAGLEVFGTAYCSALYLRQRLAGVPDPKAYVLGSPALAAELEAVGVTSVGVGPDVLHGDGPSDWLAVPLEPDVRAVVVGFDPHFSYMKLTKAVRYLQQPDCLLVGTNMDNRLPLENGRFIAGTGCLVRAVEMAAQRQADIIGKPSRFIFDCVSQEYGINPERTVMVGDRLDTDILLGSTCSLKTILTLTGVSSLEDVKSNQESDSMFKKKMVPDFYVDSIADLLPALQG
Description: . […] Data were analyzed with GraphPad Prism 7.04.
Supplementary Figure 3 (related to Figure 2): Characterization of the homodimeric PGP variant PGPC297S. (a) In vitro phosphatase activity of purified murine PGPC297S in comparison to purified murine PGPWT, using 2- phosphoglycolate (PG) as substrate. (b) Determ ination of […]
CP1. PG dephosphorylation was quantified using malachite green. All data in (a) and (b) are mean values ± S.E.M of n=3 independent experiments. Error bars not shown are hidden by the symbols. (c) PGP self-association in the absence or presence of CP1. Size- exclusion chromatography (SEC) of purified, recombinant murine PGP-WT in comparison to PGP-C297 […]
(1 picture or pasted object on this page, not shown here)

HT1080 cells = test: Cell viability assay (AquaBluer); format: cell-based, human
Description: Cell viability was assessed using AquaBluer according to the manufacturer’s recommendations (MultiTarget Pharmaceuticals, LLC). Fluorescence (excitation: 540 nm; emission: 590 nm) was analyzed on a Clariostar microplater reader.

[1] = LC-MS quantification of intracellular CP1; format: in vitro ADME, human; details: for Abs. CP1 / Abs. Peak Area, CP1 (neg.): PGP-WT, P5
murine PGP = molecular target: T2, murine PGP (Mus musculus, UniProt Q8CHP8); test: IC50 determination, murine PGP, glycerol 3-phosphate (G3P) dephosphorylation (EnzChek)
T2 sequence (Q8CHP8 1-321): T1 sequence (Q8CHP8 1-321 C297S) with S297C

NANP/HDHD4 = molecular target: T3, NANP/HDHD4 (Mus musculus, UniProt Q9CPT3); test: In vitro phosphatase activity assay, NANP/HDHD4 (6-phosphogluconate); format: biochemical, murine; details: NANP activity on 6-phosphogluconate
T3 construct: made in house; host or cells: Escherichia coli BL21 (DE3), pETM11 (cDNA from Origene #MR203153)
T3 sequence (Q9CPT3 1-248): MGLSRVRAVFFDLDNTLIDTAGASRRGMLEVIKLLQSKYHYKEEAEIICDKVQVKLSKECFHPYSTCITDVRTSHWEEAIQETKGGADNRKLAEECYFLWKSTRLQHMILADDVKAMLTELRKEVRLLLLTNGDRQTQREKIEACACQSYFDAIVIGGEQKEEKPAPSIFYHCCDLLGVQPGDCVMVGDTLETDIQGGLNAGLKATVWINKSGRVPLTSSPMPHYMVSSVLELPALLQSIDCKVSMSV
Excerpt: The following phosphatase constructs (in pCMV6) were purchased from Origene: murine LHPP (NM_029609; catalog #MC211738), murine LPIN1, transcript variant 2 (NM_015763, #MC204460), murine MDP1 (NM_023397, #MR201315), murine […]_026086, #MR203153), murine NT5C (NM_015807, #MR202028), human NT5M (NM_020201, #RC207737), murine PNKP (NM_021549, #MR207938), and murine PSPH (NM_133900, #MR202626). Purified human NT5C1A (NM_032526, #TP324617) and purified human PHOSPHO1 (NM_178500, #TP314434) were from Origene. The murine PHOSPHO2 construct (in pFLCI) was from Source BioScience (clone ID: I420023L04). Calf intestinal alkaline phosphatase (CIP) was from NEB. Purified, recombinant human calcineurin (PP2B) and human PTP1B (residues 1-322) were from Millipore (#207005 or #539736, respectively). […] The 3'-P-oligonucleotide 5'-[NT]^3-]-3' was used as a PNKP substrate. […] Data were analyzed with GraphPad Prism 7.04. […] (c) Upper panel, purity of the tested, recombinant phosphatases (10 μg of protein/lane). A Coomassie Blue-stained gel is shown. Tested enzymes that are not included in this panel were obtained commercially. Lower panel , Western blots showing the overexpression of the myc-tagged cytosolic 5', 3'-nucleotidase NT5C and mitochondrial 5', 3'-nucleotidase NT5M in HEK293 cells (uncropped blots in Source Data). […] Error bars not shown are hidden by the symbols. […]

Compound: O=C(Nc1ccccc1C(=O)O)c1ccc(Oc2ccc(C(=O)Nc3ccccc3C(=O)O)cc2)cc1 [CP1]
IC50 (murine PGP^C297S; PGP^C297S, substrate PG): ~250 nM
remaining activity at […] (murine PGP^C297S; read-out: PGP-C297S activity in presence of CP1 relative to DMSO control, CP1 log[M] -5.60206): 6.31%
remaining activity at 1.25 µM (murine PGP^C297S; read-out: PGP-C297S activity in presence of CP1 relative to DMSO control, CP1 log[M] -5.90309): 12.6%
remaining activity at 0.3125 µM (murine PGP^C297S; read-out: PGP-C297S activity in presence of CP1 relative to DMSO control, CP1 log[M] -6.50515): 44.1%
remaining activity at 0.15625 µM (murine PGP^C297S; read-out: PGP-C297S activity in presence of CP1 relative to DMSO control, CP1 log[M] -6.80618): 56.8%
remaining activity at 0.078125 µM (murine PGP^C297S; read-out: PGP-C297S activity in presence of CP1 relative to DMSO control, CP1 log[M] -7.10721): 72.1%
remaining activity at 0.03906 µM (murine PGP^C297S; read-out: PGP-C297S activity in presence of CP1 relative to DMSO control, CP1 log[M] -7.40824): 75.7%
remaining activity at 0.01953 µM (murine PGP^C297S; read-out: PGP-C297S activity in presence of CP1 relative to DMSO control, CP1 log[M] -7.70927): 90.1%
fluorescence intensity (HT1080 cells; CP1 10µM): 73536.5 arbitrary units and 54985.5 arbitrary units and 58790.8 arbitrary units
fluorescence intensity (HT1080 cells; CP1 33 µM): 67669 arbitrary units and 60068 arbitrary units and 61386.5 arbitrary units
fluorescence intensity (HT1080 cells; CP1 100 µM): 68775 arbitrary units and 63101.8 arbitrary units and 70832.2 arbitrary units
fluorescence intensity (HT1080 cells; CP1 200 µM): 68392.2 arbitrary units and 53769.5 arbitrary units
cytotoxicity (HT1080 cells; HT1080 cells, 100 µM, 24 h): not cytotoxic
less CP1 detected than expected ([1]; 100 µM CP1): 39%
Abs. CP1 ([1]; 3h 33 uM CP1): 0.136 pmol and 0.115 pmol and 0.127 pmol
Abs. Peak Area, CP1 (neg.) ([1]; 3h 33 uM CP1): 1166078 and 1127449 and 1204353
Abs. CP1 ([1]; 7h 100 uM CP1): 0.229 pmol and 0.231 pmol and 0.241 pmol
Abs. Peak Area, CP1 (neg.) ([1]; 7h 100 uM CP1): 2322474 and 2574644 and 2821728
IC50 (murine PGP): 1040 ± 80 nM
remaining activity at 8 µM (murine PGP; read-out: M.m PGP on G3P, activity, control = 100, CP1 log[M] -5.09691): 13.8%
remaining activity at 4 µM (murine PGP; read-out: M.m PGP on G3P, activity, control = 100, CP1 log[M] -5.39794): 19.5%
remaining activity at 2 µM (murine PGP; read-out: M.m PGP on G3P, activity, control = 100, CP1 log[M] -5.69897): 32.5%
remaining activity at 1 µM (murine PGP; read-out: M.m PGP on G3P, activity, control = 100, CP1 log[M] -6): 53.8%
remaining activity at 0.5 µM (murine PGP; read-out: M.m PGP on G3P, activity, control = 100, CP1 log[M] -6.30103): 80%
remaining activity at […] (murine PGP; read-out: M.m PGP on G3P, activity, control = 100, CP1 log[M] -6.60206): 91.2%
remaining activity at 0.125 µM (murine PGP; read-out: M.m PGP on G3P, activity, control = 100, CP1 log[M] -6.90309): 96.2%
remaining activity at 0.0625 µM (murine PGP; read-out: M.m PGP on G3P, activity, control = 100, CP1 log[M] -7.20412): 98.8%
remaining activity at 0.03125 µM (murine PGP; read-out: M.m PGP on G3P, activity, control = 100, CP1 log[M] -7.50515): 91.2%

IC50 (NANP/HDHD4): ~1000 nM
Compound: COc1ccc(C(=O)Nc2ccc(Cc3ccc(NC(=O)c4ccc(OC)c(OC)c4)c(C(=O)O)c3)cc2C(=O)O)cc1OC [CP2]

Source: publication PMC9652372, “Glycolytic flux control by drugging phosphoglycolate phosphatase” (Nature Communications, 2022)
